Patent US10251871B2, “Compositions and methods for treatment of edema” (Memorial Sloan Kettering Cancer Center, priority 2015, dated 2019)

Columns and labels:
[1] = test system: mouse tail model of lymphedema; experiment: Mouse tail model of lymphedema (tail volume, histology, immunostaining, lymphoscintigraphy, NIR imaging, PCR, ELISA); assay type: in vivo, C57BL/6J mice
[2] = test system: hind limb lymphatic ablation with DT; experiment: Hind limb lymphatic ablation with DT; assay type: in vivo, mouse
[3] = test system: popliteal lymph node dissection (PLND) mouse model; experiment: Popliteal lymph node dissection (PLND) hind limb model of lymphatic injury
[4] = topical captopril 5% once daily, 6 weeks after tail lymphatic ablation, vs control
[5] = captopril after DT lymphatic ablation, ipsilateral limb vs ipsilateral control
[6] = topical captopril 5% once daily for 2 weeks after PLND, vs control
[7] = systemic pirfenidone, oral 400 mg/kg daily for 3 weeks from 7 weeks after surgery, vs control
[8] = systemic pirfenidone, vs control
[9] = topical pirfenidone 1 mg/ml daily for 3 weeks from 7 weeks after surgery, vs control
[10] = topical pirfenidone, vs control
[11] = systemic pirfenidone once daily for 2 weeks from 2 weeks after PLND, 4 weeks after PLND, vs vehicle
[12] = systemic pirfenidone, 4 weeks after PLND, vs control

C[C@H](CS)C(=O)N1CCC[C@H]1C(=O)O [captopril]
ACE staining area [1, 4]: significant decrease | LYVE-1+ lymphatic vessel area [1, 4]: significant decrease | dermal type I collagen staining area [1, 4]: significant decrease | number of lymphatic vessels (LYVE-1+) crossing the region of the tail wound [1, 4]: increases | perilymphatic CD3+ cells/vessel [1, 4]: significant decrease | perilymphatic F4/80 cells/vessel [1, 4]: significant decrease | subcutaneous fibroadipose tissue deposition [1, 4]: significant decrease | tail collecting vessel pumping (contraction) frequency ([1]; topical captopril ointment, 6 weeks after tail lymphatic ablation, vs control): increases | LYVE-1+ lymphatic vessel area [2, 5]: significant decrease | T cell (CD3+) infiltration in hind limb tissues [2, 5]: decreases | hind limb angiotensin converting enzyme (ACE) expression [2, 5]: decreases | hind limb collecting vessel smooth muscle (α-SMA) deposition [2, 5]: decreases | hind limb lymphangiogenesis (LYVE-1+ lymphatic vessels) [2, 5]: decreases | hind limb macrophage (F4/80+) infiltration [2, 5]: decreases | hind limb type I collagen deposition [2, 5]: decreases | formation of collateral lymphatics (ICG) ([2]; captopril after DT lymphatic ablation, vs control): increases | foot swelling ([2]; captopril treatment after hind limb lymphatic ablation with DT, vs control): obvious decrease | T cell (CD3+) infiltration in hind limb tissues [3, 6]: decreases | hind limb collecting lymphatic pumping (packet frequency) [3, 6]: increases | lymphangiogenesis (LYVE-1+ vessels) [3, 6]: increases | macrophage (F4/80+) infiltration in hind limb tissues [3, 6]: decreases | trafficking of dendritic cells (FITC+CD11c cells in inguinal lymph nodes) [3, 6]: increases | lymphatic function ([3]; topical captopril 5% once daily for 2 weeks after PLND, vs vehicle): improved lymphatic function

Cc1ccc(=O)n(-c2ccccc2)c1 [pirfenidone]
TGF-β1 protein accumulation (ELISA) ([1]; pirfenidone (FIG. 20I: systemic), vs control): decreased accumulation | accumulation of IFN-γ protein (ELISA) ([1]; pirfenidone (FIG. 20J: systemic), vs control): significant decrease | VEGF-C protein accumulation (ELISA) ([1]; pirfenidone (FIG. 20K: systemic), vs control): no difference | numbers of infiltrating CD4+ cells ([1]; pirfenidone treatment (systemic and topical, FIG. 20A, 20D), vs control): marked decreases | numbers of infiltrating CD3+ cells ([1]; pirfenidone treatment from 7 weeks after surgery, vs control): marked decreases | lymphatic vessels density (LYVE-1) in the tail ([1]; pirfenidone, vs control): marked increase | type I collagen around collecting lymphatics (α-SMA+/podoplanin+) ([1]; pirfenidone-treated animals vs control): essentially normal lymphatic vessels | soft tissue thickness [1, 7]: markedly decreased | tail volume [1, 7]: markedly decreased | F4/80+ cellular infiltration in lymphedematous tail tissues [1, 8]: no difference | accumulation of TGF-β1+ cells [1, 8]: markedly decreased | accumulation of pSMAD3+ cells [1, 8]: markedly decreased | dermal and subcutaneous type I collagen deposition [1, 8]: significantly decreased | increase in decay-adjusted 99Tc uptake of the sacral lymph nodes [1, 8]: ~4 fold | increase in peak nodal uptake of 99Tc [1, 8]: ~4 fold | numbers of leukocytes infiltrating the dermis and subcutaneous fat [1, 8]: markedly decreased | rate of 99Tc uptake (slope of decay-adjusted curve) [1, 8]: increased | soft tissue thickness [1, 9]: markedly decreased | tail volume [1, 9]: markedly decreased | F4/80+ cellular infiltration in lymphedematous tail tissues [1, 10]: no difference | accumulation of TGF-β1+ cells [1, 10]: markedly decreased | accumulation of pSMAD3+ cells [1, 10]: markedly decreased | dermal and subcutaneous type I collagen deposition [1, 10]: significantly decreased | increase in decay-adjusted 99Tc uptake of the sacral lymph nodes [1, 10]: ~4 fold | increase in peak nodal uptake of 99Tc [1, 10]: ~4 fold | numbers of leukocytes infiltrating the dermis and subcutaneous fat [1, 10]: markedly decreased | rate of 99Tc uptake (slope of decay-adjusted curve) [1, 10]: increased | lymphatic vessels density (LYVE-1) in the hind limb ([3]; systemic pirfenidone once daily for 2 weeks from 2 weeks after PLND, 4 weeks after PLND, vs control): marked increase | dermal backflow and capillary vessel leakage (NIR lymphangiography) [3, 11]: markedly less | increase in rate of collecting lymphatic vessel contraction [3, 11]: 2 fold | perilymphatic expression of iNOS by inflammatory cells [3, 12]: significant decrease | perilymphatic infiltration of inflammatory cells (CD45+) [3, 12]: significant decrease

C/C(O)=C(\C#N)C(=O)Nc1ccc(C(F)(F)F)cc1 [teriflunomide]
decrease in tail volume ([1]; topical teriflunomide 27 mg/ml once daily for 4 weeks from 2 weeks after surgery, 6 weeks after lymphatic ablation, vs vehicle): ~6 fold | decrease in number of infiltrating CD4+ cells in tail tissues ([1]; topical teriflunomide 27 mg/ml, vs control): more than 8 fold | increase in number of DCs trafficked to the inguinal lymph node (FITC painting) ([3]; topical teriflunomide 27 mg/ml after PLND, vs control): more than 5 fold | increase in formation of collateral lymphatic vessels bypassing the zone of injury (ICG near infra-red imaging) ([3]; topical teriflunomide 27 mg/ml once daily for 2 weeks from 2 weeks after PLND, vs vehicle): 4.5 fold
